{
  "source": "paper PMC11649397",
  "about": "“The study of halogen effect on the reactivity of the serine-targeting covalent warheads” (Frontiers in Chemistry, 2024)",
  "target": "T1, hCES1A (Homo sapiens, UniProt P23141)",
  "T1 sequence (P23141 18-567)": "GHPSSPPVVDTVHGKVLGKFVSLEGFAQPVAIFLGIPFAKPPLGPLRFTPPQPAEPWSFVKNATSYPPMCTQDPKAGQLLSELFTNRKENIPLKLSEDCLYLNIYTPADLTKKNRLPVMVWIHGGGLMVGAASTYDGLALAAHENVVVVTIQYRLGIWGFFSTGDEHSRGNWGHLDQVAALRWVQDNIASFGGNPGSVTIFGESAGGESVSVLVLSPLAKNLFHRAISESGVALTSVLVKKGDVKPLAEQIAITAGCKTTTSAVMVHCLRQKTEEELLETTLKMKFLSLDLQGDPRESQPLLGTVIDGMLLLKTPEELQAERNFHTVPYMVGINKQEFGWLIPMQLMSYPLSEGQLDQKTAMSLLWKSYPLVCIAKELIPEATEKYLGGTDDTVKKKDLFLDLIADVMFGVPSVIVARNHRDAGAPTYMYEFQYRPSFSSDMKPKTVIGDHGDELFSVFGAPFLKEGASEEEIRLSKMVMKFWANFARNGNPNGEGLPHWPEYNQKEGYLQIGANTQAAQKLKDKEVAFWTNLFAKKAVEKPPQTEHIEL",
  "experiment": "Co-crystallography with hCES1A",
  "assay_type": "binding",
  "conditions": "1:5 molar ratio",
  "method": "Purified hCES1A incubated with F-3 and F-4 at 1:5 M ratio for 1 h at 18°C. Crystallisation screening was performed using commercially available kit sets using sitting drop vapor diffusion at 16°C. Both diffraction-quality crystals were obtained from the condition containing 14.4% peg8000 (w/v), 0.1M MES 6.4, 0.3M CaAc and 20% glycerol. Crystals were flash cooled in liquid nitrogen after cryoprotection in 25% glycerin. Date was collected on 02U1 at Shanghai Synchrotron Radiation Facility (SSRF). Data images were processed using program HKL2000. ([Otwinowski and Minor, 1997]). Crystal structures were solved using molecular replacement with the Phenix software suite using unbound hces1a (Protein Data Bank [PDB] accession number 1MX1 as the search model. Structure refinement was performed using Phenix. ([Adams et al., 2010]). The program COOT was used for manual rebuilding. ([Emsley and Cowtan, 2004]). Molecular graphics images were generated using CCP4MG. ([McNicholas et al., 2011]). […]\nfluorogenic probe. 4 Briefly, the incubation mixtures (0.1 mL) contained Tris-HCl buffer, hPL solution (0.25 μg/mL, final concentration), porcine bile salt (0.1 mg/mL, final concentration) and each inhibitor (with different concentrations). […] The fluorescent signals of hydrolytic product were quantified by using the microplate reader (Spectra Max M4, Austria), with the wavelength of 600 nm and 660 nm for excitation and emission, respectively. […]\nOPTS, a known fluorogenic probe, was used as the substrate to assess the residual activities of Notum in the presence of each tested compound. […] After preincubated at 37 °C for 1 min, OPTS was added to initiate the hydrolytic reaction and the multi-mode microplate reader (SpectraMax iD3, Molecular Devices, Austria) was used to analyze the florescence signals of the […]\nThe F-3, F-4, F-10-bound peptides was analysed using the nanoLC-MS/MS system, respectively.6 The purified hCES1A (150 μg, final content) was co-incubated with the small molecule inhibitor F-3/ F-4/ F-10 (100 μM, final concentration) at 4 °C and 25 °C, respectively, for 4h. […]",
  "data": [
    {"smiles": "O=C(c1ccccc1)C(F)(F)F", "note": "[F, 2,2,2-trifluoroacetophenone]", "values": [
      {"measurement": "covalent binding mode at the catalytic triad (Ser221) in co-crystal", "value": "failed to result in similar covalent interactions"}
    ]}
  ]
}
